How the values were obtained:
carcinoma cell lines = conditions: four cell lines; cited from earlier work
endothelin receptor = conditions: cited from earlier work
ETB receptor = biological target: T1, ETB receptor (Homo sapiens, UniProt P24530); conditions: cited from earlier work
T1 sequence (P24530 27-442): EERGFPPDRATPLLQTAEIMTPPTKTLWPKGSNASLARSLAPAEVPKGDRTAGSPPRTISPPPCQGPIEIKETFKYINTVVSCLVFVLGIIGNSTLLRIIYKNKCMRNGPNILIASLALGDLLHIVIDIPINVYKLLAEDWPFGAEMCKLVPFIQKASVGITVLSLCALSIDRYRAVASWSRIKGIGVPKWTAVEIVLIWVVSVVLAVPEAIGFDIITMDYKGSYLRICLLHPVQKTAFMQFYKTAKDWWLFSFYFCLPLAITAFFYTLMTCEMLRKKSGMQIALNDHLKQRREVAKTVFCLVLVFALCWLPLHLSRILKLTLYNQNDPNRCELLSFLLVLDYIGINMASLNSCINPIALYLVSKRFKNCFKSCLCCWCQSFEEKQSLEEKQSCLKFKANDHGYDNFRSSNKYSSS

ETA receptor = biological target: T2, ETA receptor (Homo sapiens, UniProt P25101); conditions: cited from earlier work
T2 sequence (P25101 21-427): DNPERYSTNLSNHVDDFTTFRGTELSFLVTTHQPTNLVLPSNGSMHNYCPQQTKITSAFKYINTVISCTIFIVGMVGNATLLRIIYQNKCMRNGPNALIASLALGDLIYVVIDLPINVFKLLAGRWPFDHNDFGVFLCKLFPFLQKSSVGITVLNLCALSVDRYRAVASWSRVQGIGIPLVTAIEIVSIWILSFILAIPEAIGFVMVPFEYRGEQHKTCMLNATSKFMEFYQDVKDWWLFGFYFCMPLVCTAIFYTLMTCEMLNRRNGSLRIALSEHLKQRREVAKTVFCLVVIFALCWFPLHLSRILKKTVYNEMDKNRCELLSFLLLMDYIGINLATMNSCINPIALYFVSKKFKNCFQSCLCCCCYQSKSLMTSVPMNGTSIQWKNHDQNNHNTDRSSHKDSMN

[1] = biological target: T3, endothelin receptor A (ETA) (Homo sapiens, UniProt P25101); assay: inhibition of endothelin receptor A (ETA)
T3 sequence (P25101 21-427): T2 sequence (P25101 21-427)

NF-κB [2] = assay: inhibition of NF-κB / NF-κB binding to κB consensus DNA
tumor cell lines = assay: inhibition of tumor cell lines; type: cell-based
NF-κB [3] = conditions: cited from earlier work
human cancer cell lines = conditions: cited from earlier work

Cc1coc2c1C(=O)C(=O)c1c-2ccc2c(C)cccc12 [tanshinone 17]
potency against carcinoma cell lines (in words) (carcinoma cell lines): lack significant activity

Cc1coc2c1C(=O)C(=O)c1c-2ccc2c1CCCC2(C)CO (centres unmarked) [compound 11, tanshinone IIB]
potency against carcinoma cell lines (in words) (carcinoma cell lines): very little activity

C=C1CCCc2c1ccc1c2C(=O)C(=O)c2c(C)coc2-1 [compound 9, methylene tanshinquinone]
potency against carcinoma cell lines (in words) (carcinoma cell lines): more potent than any of the tanshindiols

Cc1noc(NS(=O)(=O)c2cccc3c(N(C)C)cccc23)c1C [BMS-1 82874]
endothelin receptor antagonist activity / binding (in words) (endothelin receptor): active

COc1cc(OC)nc(O[C@H](C(=O)O)C(OC)(c2ccccc2)c2ccccc2)n1 [darusentan]
endothelin receptor antagonist activity / binding (in words) (endothelin receptor): effective endothelin receptor antagonists

COc1cccc(Oc2c(NS(=O)(=O)c3ccc(C(C)(C)C)cc3)ncnc2OCCO)c1 [Ro-46-2005]
endothelin receptor antagonist activity / binding (in words) (endothelin receptor): orally active non-peptidic antagonist

CCCOc1ccc2c(c1)[C@@H](c1ccc(OC)cc1OCC(=O)O)[C@H](C(=O)O)[C@H]2c1ccc2c(c1)OCO2 [SB-209670]
affinity for ETB receptor (concentration range in words) (ETB receptor): nanomolar
affinity for ETA receptor (concentration range in words) (ETA receptor): subnanomolar

Cc1coc2c1C(=O)C(=O)c1c-2ccc2c1CCCC2(C)C [compound 8, tanshinone IIA]
inhibition of endothelin receptor A (ETA) [1]: modest inhibition
inhibition of NF-κB (NF-κB [2]): modest inhibition
inhibition of tumor cell lines (tumor cell lines): modest inhibition
blocking of NFκB binding to κB consensus DNA (NF-κB [3]): block NFκB from binding to κB consensus DNA
potency against carcinoma cell lines (in words) (carcinoma cell lines): lack significant activity

COC(=O)[C@@]1(C)CCCc2c1ccc1c2C(=O)C(=O)c2c(C)coc2-1 [compound 10, methyl tanshinonate]
potency against carcinoma cell lines (in words) (carcinoma cell lines): equally potent as the tanshindiols

Cc1cccc2c1ccc1c3occ(C)c3c(=O)oc21 [compound 20, neo-tanshinlactone]
potency relative to tamoxifen citrate (human cancer cell lines; breast cancer, in some cases): ten times more potent
selectivity relative to tamoxifen citrate (human cancer cell lines; breast cancer, in some cases): twenty times more selective
effectiveness against human cancer cell lines (human cancer cell lines; several human cancer cell lines, particularly breast cancer): very effective

Source: patent US20070207989A1, “DITERPENE DERIVATIVES FOR THE TREATMENT OF CARDIOVASCULAR, CANCER AND INFLAMMATORY DISEASES” (SaviPu Pharmaceuticals, priority 2006, published 2007)
